From patent US10124009B2, “Bromodomain inhibitors” (Tensha Therapeutics, Inc., priority 2014, dated 2018)

Legend:
BRD4(1) = BRD4(1) (Homo sapiens (Human), UniProt O60885); experiment: BROMOscan binding assay BRD4(1)
Protocol: (§1) (S)-JQ (S8) was used as a positive control.
(§2) T7 phage strains displaying bromodomains were grown in parallel in 24-well blocks in an E. coli host derived from the BL21 strain. E. coli were grown to log-phase and infected with T7 phage from a frozen stock (multiplicity of infection=0.4) and incubated with shaking at 32° C. until lysis (90-150 minutes). The lysates were centrifuged (5,000×g) and filtered (0.2 μm) to remove cell debris. […] The liganded beads were blocked with excess biotin and washed with blocking buffer (SeaBlock (Pierce), 1% BSA, 0.05% Tween 20, 1 mM DTT) to remove unbound ligand and to reduce non-specific phage binding.
(§3) Test compounds were prepared as 1000× stocks in 100% DMSO and subsequently serially diluted 1:10 in monoethylene glycol (MEG) to create stocks at 100× the screening concentration (resulting stock solution is 10% DMSO/90% MEG). The compounds were then diluted directly into the assays such that the final concentration of DMSO and MEG were 0.1% and 0.9%, respectively. All reactions were performed in polystyrene 96-well plates in a final volume of 0.135 ml. […] The bromodomain concentration in the eluates was measured by qPCR.
(§4) Most Kds were determined using a compound top concentration=10,000 nM.
(§5) Binding constants (Kds) were calculated with a standard dose-response curve using the Hill equation. The Hill Slope was set to −1. Curves were fitted using a non-linear least square fit with the Levenberg-Marquardt algorithm. […] The amount of bromodomain was measured by qPCR (y-axis) and was plotted against the corresponding compound concentration in nM in log 10 scale.

BRD4(2) = BRD4(2) (Homo sapiens (Human), UniProt O60885); experiment: BROMOscan binding assay BRD4(2)
Protocol: as §1, §2, §3, §4, §5

[1] = Caco-2 permeability assay; settings: human; for recovery at 2 h, 10 μM: Caco-2; for Papp A→B at 2 h, 10 μM: Caco-2, Mean Papp, Assay Conc. 10 μM
Caco-2 = Caco-2 permeability assay; settings: Assay Conc. 10 μM
in vitro = settings: human
[2] = IV and oral pharmacokinetics in male Sprague-Dawley rats; assay type: in vivo, rat; settings: for exposures following IV administration: IV 1 mg/kg; for Extrapolated / AUC(0-inf) / AUC(0-t) / Cmax / Tmax / half-life: rat plasma; for AUC(0-inf) / AUC(0-t) / Cmax / Tmax / half-life / bioavailability: male, Sprague-Dawley; for bioavailability: rat, plasma, PO 5 mg/kg, read-out: oral bioavailability F
Protocol: Male Sprague-Dawley (˜250-325 g) with indwelling jugular vein cannulae (JVC) were purchased and allowed to acclimate to the test facility for a minimum of 2 days. All animals were fasted overnight prior to dosing. Oral formulations were prepared by weighing the appropriate amount of the compound into formulation vial and adding the appropriate volume of DMSO (10%), Solutol HS-15 (10%), and saline (80%) (See Table 0 for compound amounts and concentrations of all formulations). Once the test compound was in the vial, DMSO was added and the vial was vortexed for 1-2 minutes and sonicated for 3 minutes. The appropriate volume of Solutol HS-15 was then added to formulation vial and the vial was vortexed for 1-2 minutes and sonicated for 2 minutes. Saline was added and the pH adjusted to about 6.8-7.4, and the vial was vortexed for 2 minutes.
Oral dosing was performed using a ball-tipped gavage needle. […] No abnormalities were observed during the course of the study. Serial samples were collected by via tail snip, or facial vein. Blood samples were collected into NaF Na2EDTA tubes and stored on wet ice until processed to plasma by centrifugation (3500 rpm for 10 minutes at 5° C.) within 30 minutes of collection. Plasma samples were transferred into matrix tubes and stored at −80° C. until transferred to analytical chemistry for analysis. The cellular fraction was discarded. Dose formulation and plasma samples were analyzed for parent drug and metabolite by Agilux Laboratories via LC/MS/MS using an RGA I assay.

RIN-14B = experiment: Cell Titer-Glo rat insulinoma cell assay, RIN-14B; assay type: cell-based; settings: cell proliferation, 168-192 h culture
Protocol: (§6) A Cell Titer-Glo assay was utilized to test the sensitivity of four rat insulinoma (RIN) cell lines, RIN-14B, RIN-m5F, RIN-m, and RIN-5, to Compound 1 and Compound 2.
(§7) Cells were seeded at 5000 cells per well in a 96-well microculture plate in a total volume of 100 μl/well and incubated for 24 hours. 100 μl of 2× testing compounds (Compound 1 or Compound 2), serially diluted 1:4 were added to each well. The concentrations tested for Compound 1 and Compound 2 were 20 μM, 5 μM, 1.25 μM, 0.313 μM, 0.0781 μM, 0.0195 μM, 0.00488 μM, 0.00122 μM, 0.000305 μM, and 0.0000763 μM. After 168-192 total hours of culture 100 μl of media was removed from each well and 50 μl of Cell Titer-Glo (Promega #G7571) was added to each well. The plate was shaken for 2 minutes and allowed to equilibrate for 10 minutes. Luminescence was measured on a Tecan GENios microplate reader. Percent inhibition of cell proliferation was calculated relative to untreated control wells. All tests were performed in triplicate or quadruplicates at each concentration level. IC50 values were calculated using Prism 6.00 curve-fitting with a four parameter-logistic equation.

RIN-m5F = experiment: Cell Titer-Glo rat insulinoma cell assay, RIN-m5F; assay type: cell-based; settings: cell proliferation, 168-192 h culture
Protocol: as §6, §7

RIN-m = experiment: Cell Titer-Glo rat insulinoma cell assay, RIN-m; assay type: cell-based; settings: cell proliferation, 168-192 h culture
Protocol: as §6, §7

RIN-5F = experiment: Cell Titer-Glo rat insulinoma cell assay, RIN-5F; assay type: cell-based; settings: cell proliferation, 168-192 h culture
Protocol: as §6, §7

[3] = system: rat insulinoma (RIN) cell lines; experiment: Cell Titer-Glo rat insulinoma cell assay, all four cell lines; assay type: cell-based; settings: all cell lines (RIN-14B, RIN-m5F, RIN-m, RIN-5)
Protocol: as §6, §7

[4] = PO Dose (5 mg/kg) vs IV (1 mg/kg)

Compound	Kd (BRD4(1))	Kd values / in vitro binding activity to BRD4(1), in words (BRD4(1))	Kd (BRD4(2))	Kd values / in vitro binding activity to BRD4(2), in words (BRD4(2))	recovery at 2 h, 10 μM [1]	Papp A→B at 2 h, 10 μM [1]	exposures following IV administration [2]	Extrapolated ([2]; IV Dose (1 mg/kg))	AUC(0-inf) ([2]; IV Dose (1 mg/kg))	AUC(0-t) ([2]; IV Dose (1 mg/kg))	Cmax ([2]; IV Dose (1 mg/kg))	Tmax ([2]; IV Dose (1 mg/kg))	half-life ([2]; IV Dose (1 mg/kg))	AUC(0-t) ([2]; PO Dose (5 mg/kg))	Cmax ([2]; PO Dose (5 mg/kg))	Tmax ([2]; PO Dose (5 mg/kg))	bioavailability [2]	other results
Cc1sc2c(c1C)C(c1ccc(Cl)cc1)=N[C@@H](CC(=O)OC/C(Br)=C(\Br)CO)c1nnc(C)n1-2 [Compound 7]	1.5 nM	low Kd values	2.1 nM	low Kd values	76.9%	31.3 ×10⁻⁶ cm/s												
CNC(=C[N+](=O)[O-])NCCSCc1ccc(CN(C)C)o1 [Ranitidine, reference compound]																		Mean % recovery (Caco-2): 97.8%; Mean Papp, A-B (Caco-2; 2 hours): 0.170 10^−6 cm/s
CC(=O)CC(c1ccccc1)c1c(O)c2ccccc2oc1=O (stereo not shown) [Warfarin]																		recovery at 2 h, 10 μM (in vitro; Caco-2): 99.9%; Papp A→B at 2 h, 10 μM (in vitro; Caco-2, Mean Papp, A-B): 38.8 ×10⁻⁶ cm/s
Cc1sc2c(c1C)C(c1ccc(Cl)cc1)=N[C@@H](CC(=O)OC(C)(C)C)c1nnc(C)n1-2 [(S)-JQ1, reference compound]					84.6%	35.4 ×10⁻⁶ cm/s												
Cc1sc2c(c1C)C(c1ccc(Cl)cc1)=N[C@@H](CC(=O)OCC(O)CO)c1nnc(C)n1-2 (stereo partly shown) [Compound 6]					90.8%	4.74 ×10⁻⁶ cm/s												
Cc1sc2c(c1C)C(c1ccc(Cl)cc1)=N[C@@H](CC(=O)OCCO)c1nnc(C)n1-2 [Compound 3]	1.1 nM	low Kd values	1.2 nM	low Kd values	88.7%	29.8 ×10⁻⁶ cm/s												
Cc1sc2c(c1C)C(c1ccc(Cl)cc1)=N[C@@H](CC(=O)OCCCCCCO)c1nnc(C)n1-2 [Compound 5]		low Kd values	0.4 nM	low Kd values	88.7%	39.9 ×10⁻⁶ cm/s	detected	0.75%	516 ng·h/mL	512 ng·h/mL	1070 ng/mL	4.98 min	18.1 min	12.1 ng·h/mL	12.2 ng/mL	30 min		
Cc1sc2c(c1C)C(c1ccc(Cl)cc1)=N[C@@H](CC(=O)OCCCO)c1nnc(C)n1-2 [Compound 4]	1.1 nM	low Kd values	1.3 nM	low Kd values	99.4%	35.6 ×10⁻⁶ cm/s	detected	0.28%	784 ng·h/mL	782 ng·h/mL	1130 ng/mL	4.98 min	48.4 min	813 ng·h/mL	480 ng/mL	30 min	> 23%	F [2, 4]: 23.4%; AUC(0-inf) ([2]; PO Dose (5 mg/kg)): 918 ng·h/mL; half-life ([2]; PO Dose (5 mg/kg)): 110 min
Cc1sc2c(c1C)C(c1ccc(Cl)cc1)=N[C@@H](CC(=O)OCC(C)O)c1nnc(C)n1-2 (stereo partly shown) [Compound 2]	1.9 nM	low Kd values	1.9 nM	low Kd values	95.3%	30.6 ×10⁻⁶ cm/s	detected	4.62%			790 ng/mL	4.98 min	27.4 min	2720 ng·h/mL	820 ng/mL	60 min	> 23%	IC50 (RIN-14B): 26.5 nM; IC50 (RIN-m5F): 42.3 nM; IC50 (RIN-m): 41.5 nM; IC50 (RIN-5F; Rattus norvegicus): 64.5 nM; IC50 (RIN-5F): 59.9 nM; IC50 [3]: < 80 nM; F [2, 4]: 102.2%; AUC(0-inf) ([2]; PO Dose (5 mg/kg)): 3030 ng·h/mL; half-life ([2]; PO Dose (5 mg/kg)): 107 min
Cc1sc2c(c1C)C(c1ccc(Cl)cc1)=N[C@@H](CC(=O)OC1CCC(O)CC1)c1nnc(C)n1-2 (stereo partly shown) [Compound 1]	1.3 nM	low Kd values	1.5 nM	low Kd values	98.5%	30.7 ×10⁻⁶ cm/s	detected	0.41%	1500 ng·h/mL	1500 ng·h/mL	1490 ng/mL	4.98 min	47.9 min	2360 ng·h/mL	619 ng/mL	60 min	> 23%	IC50 (RIN-14B): 9.3 nM; IC50 (RIN-m5F): 11.3 nM; IC50 (RIN-m): 12.6 nM; IC50 (RIN-5F; Rattus norvegicus): 21.6 nM; IC50 (RIN-5F): 19.5 nM; IC50 [3]: < 40 nM; F* ([2]; PO Dose (5 mg/kg) vs IV (1 mg/kg), AUC0-last was used to calculate % F): 31.6%
